The values below come from patent publication US20250332300A1 (priority 2024, published 2025).

Where a name gives a salt, the structure may show the parent alone. Read-outs that look alike come from different tables or passages of the source. Starred links: 1 amine or outer side, 2 acyl side, 3 side chain; linkers in the order of their positions; H or OH if unused. Positions of bridges follow the written chain, without caps; N, C: chain ends. Non-standard residues stand in square brackets, D forms with d. Residues, ends and D or L forms follow the SMILES beside them. Trp(5-OH) = N[C@@H](Cc1c[nH]c2ccc(O)cc12)C(=O)O; NMePhe(4-F) = CN[C@@H](Cc1ccc(F)cc1)C(=O)O; NMehPhe = CN[C@@H](CCc1ccccc1)C(=O)O; NMeAhp(2) = CCCCC[C@H](NC)C(=O)O; Aad = N[C@@H](CCCC(=O)O)C(=O)O; Gly(cPr) = N[C@H](C(=O)O)C1CC1; NMeK = CN[C@@H](CCCCN)C(=O)O; NMeDap = CN[C@@H](CN)C(=O)O; NMeC = CN[C@@H](CS)C(=O)O; NMeS = CN[C@@H](CO)C(=O)O; Dap = NC[C@H](N)C(=O)O; X5 = O=C(C[*:2])[*:1]

Holding throughout (assay type): binding
Test [1] concerns the target T1, mouse HER2 (23-653) (Mus musculus, UniProt P70424). As to the kind of experiment: Surface plasmon resonance (SPR) for assessment of peptide affinity, mouse HER2. Further details: mouse HER2 (23-653) using a Cy5 labeled peptide as a probe; made in house. An excerpt:
Each protein was immobilized either onto a SA sensorchip (Cytiva, BR-1005-31) or CM5 sensorchip (Cytiva, BR-1005-30) to a density of 800-2000 RU.
Background: SPR reads the build-up and loss of mass on a sensor chip optically.

For another test, the target named is human HER2 (23-652) (Homo sapiens, UniProt P04626). As to the kind of experiment: Surface plasmon resonance (SPR) for assessment of peptide affinity, human HER2. Further details: towards human HER2 (23-652) and mouse HER2 (23-653); made in house. The gist of the method: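 Binding kinetics fitted from sensorgrams with 280 s peptide association then 3000 s dissociation (30 uL/min), using HER2 (23-652) either directly immobilized (SA/CM5) or anti-Fc-captured; 3 M magnesium chloride used for regeneration.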

The target of test [2] is T1, mouse HER2 (23-653). As to the kind of experiment: TR-FRET competition assay for peptide potency, mouse HER2. Also on record: mouse HER2 (23-653) using a Cy5 labeled peptide as a probe; made in house; host or cells: mammalian cells. To be noted: 0.1 nM mouse HER2, 24 h incubation.
Setting [3] is: SPR, mouse HER2 extracellular domain, 25° C., 1:1 binding model, read-out: moHER2-SPR-ONC KD.
Where [4] appears, read: SPR, human HER2 extracellular domain, 25° C., 1:1 binding model, read-out: huHER2-SPR-ONC KD.
Setting [5] is: TR-FRET competition with Cy5 labeled peptide probe, read-out: moHER2 TR-FRET IC50.

As a reminder, the Kd is the concentration at which binding is half-saturated. As a reminder, the IC50 is the point on the concentration scale where inhibition reaches its midpoint. In the case of `CC(=O)NCCCC[C@H]1C(=O)N[C@@H](Cc2c[nH]c3ccc(O)cc23)C(=O)N[C@@H](Cc2c[nH]c3ccccc23)C(=O)N[C@@H](C2CC2)C(=O)N(C)[C@H](C(=O)N(C)[C@@H](Cc2ccc(F)cc2)C(N)=O)CSCC(=O)NC[C@H](NC(C)=O)C(=O)N[C@@H](Cc2ccc(O)cc2)C(=O)N[C@@H](CO)C(=O)N(C)[C@@H](CCc2ccccc2)C(=O)N1C` [Example A51, (3R,6S,9S,12S,15S,18S,21S,24S,27S)-9-((1H-indol-3-yl)methyl)-27-acetamido-15-(4-acetamidobutyl)-N-((S)-1-amino-3-(4-fluorophenyl)-1-oxopropan-2-y1)-6-cyclopropyl-12-((5-hydroxy-1H-indol-3-yl)methyl)-24-(4-hydroxybenzyl)-21-(hydroxymethyl)-N,4,16,19-tetramethyl-5,8,11,14,17,20,23,26,30-nonaoxo-18-phenethyl-1-thia-4,7,10,13,16,19,22,25,29-nonaazacyclohentriacontane-3-carboxamide] (Ac-[Dap]YS[NMehPhe][NMeK](Ac)[Trp(5-OH)]W[Gly(cPr)][NMeC][NMePhe(4-F)]-NH2; linker 1-9 via X5), the Kd at mouse HER2 (23-653) [1] (setting [3]) is 10 nM; at human HER2 (23-652) (setting [4]), 7.3 nM. The IC50 at mouse HER2 (23-653) [2] (setting [5]) was found to be 15 nM.

For the compound `CC(=O)NCCCC[C@H]1C(=O)N[C@@H](Cc2c[nH]c3ccc(O)cc23)C(=O)N[C@@H](Cc2c[nH]c3ccccc23)C(=O)N[C@@H](C2CC2)C(=O)N(C)[C@H](C(=O)N(C)[C@@H](Cc2ccc(F)cc2)C(=O)N[C@@H](CCCCNC(=O)CN2CCN(CC(=O)O)CCN(CC(=O)O)CCN(CC(=O)O)CC2)C(N)=O)CNC(=O)CCC[C@H](NC(C)=O)C(=O)N[C@H](Cc2ccc(O)cc2)C(=O)N[C@H](CO)C(=O)N(C)[C@@H](CCc2ccccc2)C(=O)N1C` [Example C36], the Kd at mouse HER2 (23-653) [1] (setting [3]) was 472 nM; on human HER2 (23-652) (setting [4]) it was 107 nM. The IC50 on mouse HER2 (23-653) [2] (setting [5]) was found to be 396 nM.

In the case of `CC(=O)N[C@H]1CCC(=O)NC[C@@H](C(=O)N(C)[C@@H](Cc2ccc(F)cc2)C(=O)N2CCC[C@H]2C(N)=O)N(C)C(=O)[C@H](C2CC2)NC(=O)[C@H](Cc2c[nH]c3ccccc23)NC(=O)[C@H](Cc2c[nH]c3ccc(O)cc23)NC(=O)[C@H](CO)N(C)C(=O)[C@H](CCc2ccccc2)N(C)C(=O)[C@H](CO)NC(=O)[C@H](Cc2ccc(O)cc2)NC1=O` [Example A30, (3S,6S,9S,12S,15S,18S,21S,24S,27S)-9-((1H-indol-3-yl)methyl)-27-acetamido-N-((S)-1-((S)-2-carbamoylpyrrolidin-1-yl)-3-(4-fluorophenyl)-1-oxopropan-2-yl)-6-cyclopropyl-12-((5-hydroxy-1H-indol-3-yl)methyl)-24-(4-hydroxybenzyl)-15,21-bis(hydroxymethyl)-N,4,16,19-tetramethyl-5,8,11,14,17,20,23,26,30-nonaoxo-18-phenethyl-1,4,7,10,13,16,19,22,25-nonaazacyclotriacontane-3-carboxamide], the values for the Kd at mouse HER2 (23-653) [1] (setting [3]) and at human HER2 (23-652) (setting [4]) were 30 nM and 31 nM, respectively. Further, the IC50 at mouse HER2 (23-653) [2] (setting [5]) was 67 nM.

In the case of `CN1C(=O)[C@H](CO)NC(=O)[C@H](Cc2ccc(O)cc2)NC(=O)[C@@H](N)CCC(=O)NC[C@@H](C(=O)N(C)[C@@H](Cc2ccc(F)cc2)C(N)=O)N(C)C(=O)[C@H](C2CC2)NC(=O)[C@H](Cc2c[nH]c3ccccc23)NC(=O)[C@H](Cc2c[nH]c3ccc(O)cc23)NC(=O)[C@H](CCCCNC(=O)C(F)(F)F)N(C)C(=O)[C@@H]1CCc1ccccc1` [Example A33, (3S,6S,9S,12S,15S,18S,21S,24S,27S)-9-((1H-indol-3-yl)methyl)-27-amino-N-((S)-1-amino-3-(4-fluorophenyl)-1-oxopropan-2-yl)-6-cyclopropyl-12-((5-hydroxy-1H-indol-3-yl)methyl)-24-(4-hydroxybenzyl)-21-(hydroxymethyl)-N,4,16,19-tetramethyl-5,8,11,14,17,20,23,26,30-nonaoxo-18-phenethyl-15-(4-(2,2,2-trifluoroacetamido)butyl)-1,4,7,10,13,16,19,22,25-nonaazacyclotriacontane-3-carboxamide TFA salt], the Kd at mouse HER2 (23-653) [1] amounted to 23 nM; on human HER2 (23-652) it was 15 nM. The compound further displayed an IC50 on mouse HER2 (23-653) [2] (moHER2 TR-FRET IC50, TR-FRET competition with Cy5 labeled peptide probe) of 32 nM.

With `CC(=O)N[C@H]1CCCC(=O)NC[C@@H](C(=O)N(C)[C@@H](Cc2ccc(F)cc2)C(N)=O)N(C)C(=O)[C@H](C2CC2)NC(=O)[C@H](Cc2c[nH]c3ccccc23)NC(=O)[C@H](Cc2c[nH]c3ccc(O)cc23)NC(=O)[C@H](CO)N(C)C(=O)[C@H](CCc2ccccc2)N(C)C(=O)[C@H](CO)NC(=O)[C@H](Cc2ccc(O)cc2)NC1=O` [Example A29, (3S,6S,9S,12S,15S,18S,21S,24S,27S)-9-((1H-indol-3-yl)methyl)-27-acetamido-N-((S)-1-amino-3-(4-fluorophenyl)-1-oxopropan-2-yl)-6-cyclopropyl-12-((5-hydroxy-1H-indol-3-yl)methyl)-24-(4-hydroxybenzyl)-15,21-bis(hydroxymethyl)-N,4,16,19-tetramethyl-5,8,11,14,17,20,23,26,31-nonaoxo-18-phenethyl-1,4,7,10,13,16,19,22,25-nonaazacyclohentriacontane-3-carboxamide] (Ac-[Aad]YS[NMehPhe][NMeS][Trp(5-OH)]W[Gly(cPr)][NMeDap][NMePhe(4-F)]-NH2; lactam 1-9), the Kd on mouse HER2 (23-653) [1] (setting [3]) was 27 nM; at human HER2 (23-652) (setting [4]) it was 30 nM. Also, on mouse HER2 (23-653) [2] (setting [5]), the IC50 was 53 nM.

For the compound `CCCCC[C@H]1C(=O)N(C)[C@@H](CCCCNC(C)=O)C(=O)N[C@@H](Cc2c[nH]c3ccc(O)cc23)C(=O)N[C@@H](Cc2c[nH]c3ccccc23)C(=O)N[C@@H](C2CC2)C(=O)N(C)[C@H](C(=O)N(C)[C@@H](Cc2ccc(F)cc2)C(N)=O)CNC(=O)CCC[C@H](NC(C)=O)C(=O)N[C@@H](Cc2ccc(O)cc2)C(=O)N[C@@H](CO)C(=O)N1C` [Example A14, (3S,6S,9S,12S,15S,18S,21S,24S,27S)-9-((1H-indol-3-yl)methyl)-27-acetamido-15-(4-acetamidobutyl)-N-((S)-1-amino-3-(4-fluorophenyl)-1-oxopropan-2-yl)-6-cyclopropyl-12-((5-hydroxy-1H-indol-3-yl)methyl)-24-(4-hydroxybenzyl)-21-(hydroxymethyl)-N,4,16,19-tetramethyl-5,8,11,14,17,20,23,26,31-nonaoxo-18-pentyl-1,4,7,10,13,16,19,22,25-nonaazacyclohentriacontane-3-carboxamide] (Ac-[Aad]YS[NMeAhp(2)][NMeK](Ac)[Trp(5-OH)]W[Gly(cPr)][NMeDap][NMePhe(4-F)]-NH2; lactam 1-9), the figures for the Kd on mouse HER2 (23-653) [1] (setting [3]) and at human HER2 (23-652) (setting [4]) were 1.2 nM and 1.3 nM, respectively. The IC50 on mouse HER2 (23-653) [2] (setting [5]) was found to be 3.7 nM.

In the case of `CC(=O)N[C@H]1CCCC(=O)NC[C@@H](C(=O)N(C)[C@@H](Cc2ccc(F)cc2)C(=O)N[C@@H](CCCCNC(=O)CN2CCN(CC(=O)O)CCN(CC(=O)O)CCN(CC(=O)O)CC2)C(N)=O)N(C)C(=O)[C@H](C2CC2)NC(=O)[C@H](Cc2c[nH]c3ccccc23)NC(=O)[C@H](Cc2c[nH]c3ccc(O)cc23)NC(=O)[C@H](CCCCNC(=O)CC(=O)O)N(C)C(=O)[C@H](CCc2ccccc2)N(C)C(=O)[C@H](CO)NC(=O)[C@H](Cc2ccc(O)cc2)NC1=O` [Example C19], the Kd worked out at 10 nM on mouse HER2 (23-653) [1] (setting [3]) and 5.5 nM on human HER2 (23-652) (setting [4]). For the same compound, on mouse HER2 (23-653) [2] (setting [5]), the IC50 was determined as 7.6 nM.
